Assay results reported in PubChem BioAssay AID2060508 (Molecular Pharmacology Branch, DTP, NCI, 2025).

Test system: 454973-116-R2-J3-PDC spheroids, viability, % test/control
Experiment: Anticancer human tumor 454973-116-R2-J3-PDC patient-derived pancreatic carcinoma cell line growth inhibition [GQUAD]
Conditions: spheroids with HUVEC and MSC; for IC50: curve of first compound; for viability, T/C: stronger effect = lower value
Outline: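 Multi-cell-type spheroids of tumor cells with HUVEC and mesenchymal stem cells, treated with drug combinations. Concentrations descend in half-log steps from near clinical Cmax, or from 10 microM where Cmax is unknown; viability read-out.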

[1] = second compound 0.0316 µM, first compound 0.0316 µM
[2] = second compound 0.0316 µM, first compound 0.1 µM
[3] = second compound 0.0316 µM, first compound 0.316 µM
[4] = second compound 0.0316 µM, first compound 1 µM
[5] = second compound 0.0316 µM, first compound 3.16 µM
[6] = second compound 0.0316 µM, first compound 10 µM
[7] = second compound 0.1 µM, first compound 0.0316 µM
[8] = second compound 0.1 µM, first compound 0.1 µM
[9] = second compound 0.1 µM, first compound 0.316 µM
[10] = second compound 0.1 µM, first compound 1 µM
[11] = second compound 0.1 µM, first compound 3.16 µM
[12] = second compound 0.1 µM, first compound 10 µM
[13] = second compound 0.316 µM, first compound 0.0316 µM
[14] = second compound 0.316 µM, first compound 0.1 µM
[15] = second compound 0.316 µM, first compound 0.316 µM
[16] = second compound 0.316 µM, first compound 1 µM
[17] = second compound 0.316 µM, first compound 3.16 µM
[18] = second compound 0.316 µM, first compound 10 µM
[19] = second compound 1 µM, first compound 0.0316 µM
[20] = second compound 1 µM, first compound 0.1 µM
[21] = second compound 1 µM, first compound 0.316 µM
[22] = second compound 1 µM, first compound 1 µM
[23] = second compound 1 µM, first compound 3.16 µM
[24] = second compound 1 µM, first compound 10 µM
[25] = second compound 3.16 µM, first compound 0.0316 µM
[26] = second compound 3.16 µM, first compound 0.1 µM
[27] = second compound 3.16 µM, first compound 0.316 µM
[28] = second compound 3.16 µM, first compound 1 µM
[29] = second compound 3.16 µM, first compound 3.16 µM
[30] = second compound 3.16 µM, first compound 10 µM
[31] = second compound 10 µM, first compound 0.0316 µM
[32] = second compound 10 µM, first compound 0.1 µM
[33] = second compound 10 µM, first compound 0.316 µM
[34] = second compound 10 µM, first compound 1 µM
[35] = second compound 10 µM, first compound 3.16 µM
[36] = second compound 10 µM, first compound 10 µM
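Also: spheroids exposed to compounds for seven days.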
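For viability, T/C in this document: 100% = DMSO vehicle control viability.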

Question: `C=CC(=O)N1CCN(c2nc(=O)n(-c3c(C)ccnc3C(C)C)c3nc(-c4c(O)cccc4F)c(F)cc23)C(C)C1` (stereo unspecified) + CN(C)c1ccc(Nc2c3ccc(NC(=O)CCN4CCCC4)cc3nc3cc(NC(=O)CCN4CCCC4)ccc23)cc1 was tested. Which IC50 (second compound 0.0316 µM) did it give?
Answer: > 10 µM

Question: What about the IC50 (second compound 0.1 µM) of the same compound?
Answer: > 10 µM

Question: And the IC50 (second compound 0.316 µM)?
Answer: > 10 µM

Question: And the IC50 (second compound 1 µM)?
Answer: > 10 µM

Question: What about the IC50 (second compound 3.16 µM) of the same compound?
Answer: > 10 µM

Question: What about the IC50 (second compound 10 µM) of the same compound?
Answer: > 10 µM

Question: And the viability, T/C [1]?
Answer: 112%

Question: What about the viability, T/C [2] of the same compound?
Answer: 103%

Question: And the viability, T/C [3]?
Answer: 110%

Question: What about the viability, T/C [4] of the same compound?
Answer: 112%

Question: What about the viability, T/C [5] of the same compound?
Answer: 102%

Question: What about the viability, T/C [6] of the same compound?
Answer: 115%

Question: And the viability, T/C [7]?
Answer: 103%

Question: What about the viability, T/C [8] of the same compound?
Answer: 98.9%

Question: And the viability, T/C [9]?
Answer: 107%

Question: And the viability, T/C [10]?
Answer: 107%

Question: What about the viability, T/C [11] of the same compound?
Answer: 102%

Question: And the viability, T/C [12]?
Answer: 112%

Question: What about the viability, T/C [13] of the same compound?
Answer: 107%

Question: And the viability, T/C [14]?
Answer: 103%

Question: And the viability, T/C [15]?
Answer: 103%

Question: And the viability, T/C [16]?
Answer: 110%

Question: And the viability, T/C [17]?
Answer: 99.5%

Question: What about the viability, T/C [18] of the same compound?
Answer: 111%

Question: What about the viability, T/C [19] of the same compound?
Answer: 97.3%

Question: What about the viability, T/C [20] of the same compound?
Answer: 91.8%

Question: And the viability, T/C [21]?
Answer: 104%

Question: What about the viability, T/C [22] of the same compound?
Answer: 86.7%

Question: And the viability, T/C [23]?
Answer: 102%

Question: What about the viability, T/C [24] of the same compound?
Answer: 100%

Question: What about the viability, T/C [25] of the same compound?
Answer: 97.7%

Question: And the viability, T/C [26]?
Answer: 90.7%

Question: And the viability, T/C [27]?
Answer: 93.8%

Question: And the viability, T/C [28]?
Answer: 77.7%

Question: And the viability, T/C [29]?
Answer: 103%

Question: And the viability, T/C [30]?
Answer: 105%

Question: And the viability, T/C [31]?
Answer: 83.4%

Question: And the viability, T/C [32]?
Answer: 77.9%

Question: And the viability, T/C [33]?
Answer: 82.4%

Question: And the viability, T/C [34]?
Answer: 68.5%

Question: And the viability, T/C [35]?
Answer: 79%

Question: What about the viability, T/C [36] of the same compound?
Answer: 77.5%

Question: `C#Cc1c(F)ccc2cc(O)cc(-c3ncc4c(N5CC6CCC(C5)N6)nc(OCC56CCCN5CC(F)C6)nc4c3F)c12` (stereo unspecified) + Cc1cnc(CNC(=O)c2c(=O)c3ccc(N4CCCN(C)CC4)nc3n3c2sc2ccccc23)cn1 was tested. Which IC50 (second compound 0.0316 µM) did it give?
Answer: < 0.0316 µM

Question: What about the IC50 (second compound 0.1 µM) of the same compound?
Answer: < 0.0316 µM

Question: And the IC50 (second compound 0.316 µM)?
Answer: < 0.0316 µM

Question: And the IC50 (second compound 1 µM)?
Answer: < 0.0316 µM

Question: What about the IC50 (second compound 3.16 µM) of the same compound?
Answer: < 0.0316 µM

Question: And the IC50 (second compound 10 µM)?
Answer: < 0.0316 µM

Question: What about the viability, T/C [1] of the same compound?
Answer: 45.9%

Question: What about the viability, T/C [2] of the same compound?
Answer: 40.8%

Question: And the viability, T/C [3]?
Answer: 28.3%

Question: And the viability, T/C [4]?
Answer: 23.2%

Question: And the viability, T/C [5]?
Answer: 20.3%

Question: And the viability, T/C [6]?
Answer: 17.8%

Question: And the viability, T/C [7]?
Answer: 41.9%

Question: What about the viability, T/C [8] of the same compound?
Answer: 33.3%

Question: What about the viability, T/C [9] of the same compound?
Answer: 24%

Question: And the viability, T/C [10]?
Answer: 20.1%

Question: And the viability, T/C [11]?
Answer: 17.1%

Question: What about the viability, T/C [12] of the same compound?
Answer: 16.1%

Question: And the viability, T/C [13]?
Answer: 41.7%

Question: What about the viability, T/C [14] of the same compound?
Answer: 24.4%

Question: And the viability, T/C [15]?
Answer: 17.4%

Question: And the viability, T/C [16]?
Answer: 17.1%

Question: What about the viability, T/C [17] of the same compound?
Answer: 14.3%

Question: What about the viability, T/C [18] of the same compound?
Answer: 11.4%

Question: What about the viability, T/C [19] of the same compound?
Answer: 36.6%

Question: And the viability, T/C [20]?
Answer: 24.2%

Question: And the viability, T/C [21]?
Answer: 19%

Question: And the viability, T/C [22]?
Answer: 16.5%

Question: What about the viability, T/C [23] of the same compound?
Answer: 13.2%

Question: And the viability, T/C [24]?
Answer: 10.7%

Question: And the viability, T/C [25]?
Answer: 36.5%

Question: What about the viability, T/C [26] of the same compound?
Answer: 22.6%

Question: What about the viability, T/C [27] of the same compound?
Answer: 19.3%

Question: What about the viability, T/C [28] of the same compound?
Answer: 12.6%

Question: And the viability, T/C [29]?
Answer: 9.16%

Question: What about the viability, T/C [30] of the same compound?
Answer: 4.35%

Question: What about the viability, T/C [31] of the same compound?
Answer: 0.16%

Question: And the viability, T/C [32]?
Answer: 0.43%

Question: What about the viability, T/C [33] of the same compound?
Answer: 0.47%

Question: What about the viability, T/C [34] of the same compound?
Answer: 0.12%

Question: And the viability, T/C [35]?
Answer: 0.27%

Question: And the viability, T/C [36]?
Answer: 0.18%

Question: For `Cn1ncnc1[C@H]1c2n[nH]c(=O)c3cc(F)cc(c23)N[C@@H]1c1ccc(F)cc1` + CN(C)c1ccc(Nc2c3ccc(NC(=O)CCN4CCCC4)cc3nc3cc(NC(=O)CCN4CCCC4)ccc23)cc1, which IC50 (second compound 0.0316 µM) is on record?
Answer: > 0.316 µM

Question: What about the IC50 (second compound 0.1 µM) of the same compound?
Answer: > 0.316 µM

Question: What about the IC50 (second compound 0.316 µM) of the same compound?
Answer: > 0.316 µM

Question: What about the IC50 (second compound 1 µM) of the same compound?
Answer: > 0.316 µM

Question: What about the IC50 (second compound 3.16 µM) of the same compound?
Answer: > 0.316 µM

Question: And the IC50 (second compound 10 µM)?
Answer: > 0.316 µM

Question: And the viability, T/C (second compound 0.0316 µM, first compound 0.000999 µM)?
Answer: 106%

Question: And the viability, T/C (second compound 0.0316 µM, first compound 0.00316 µM)?
Answer: 94.7%

Question: And the viability, T/C (second compound 0.0316 µM, first compound 0.00999 µM)?
Answer: 94.2%

Question: What about the viability, T/C [1] of the same compound?
Answer: 87%

Question: What about the viability, T/C (second compound 0.0316 µM, first compound 0.0999 µM) of the same compound?
Answer: 90.9%

Question: And the viability, T/C [3]?
Answer: 80.7%

Question: And the viability, T/C (second compound 0.1 µM, first compound 0.000999 µM)?
Answer: 103%

Question: What about the viability, T/C (second compound 0.1 µM, first compound 0.00316 µM) of the same compound?
Answer: 94%

Question: And the viability, T/C (second compound 0.1 µM, first compound 0.00999 µM)?
Answer: 96.6%

Question: What about the viability, T/C [7] of the same compound?
Answer: 89.4%

Question: And the viability, T/C (second compound 0.1 µM, first compound 0.0999 µM)?
Answer: 81.6%

Question: What about the viability, T/C [9] of the same compound?
Answer: 72.3%

Question: And the viability, T/C (second compound 0.316 µM, first compound 0.000999 µM)?
Answer: 95.2%

Question: And the viability, T/C (second compound 0.316 µM, first compound 0.00316 µM)?
Answer: 97.6%

Question: And the viability, T/C (second compound 0.316 µM, first compound 0.00999 µM)?
Answer: 87.3%

Question: What about the viability, T/C [13] of the same compound?
Answer: 91.7%

Question: And the viability, T/C (second compound 0.316 µM, first compound 0.0999 µM)?
Answer: 77.7%

Question: And the viability, T/C [15]?
Answer: 71.6%

Question: And the viability, T/C (second compound 1 µM, first compound 0.000999 µM)?
Answer: 90%

Question: And the viability, T/C (second compound 1 µM, first compound 0.00316 µM)?
Answer: 84.7%

Question: And the viability, T/C (second compound 1 µM, first compound 0.00999 µM)?
Answer: 90.8%

Question: What about the viability, T/C [19] of the same compound?
Answer: 66.4%

Question: And the viability, T/C (second compound 1 µM, first compound 0.0999 µM)?
Answer: 79.8%

Question: And the viability, T/C [21]?
Answer: 64.3%

Question: What about the viability, T/C (second compound 3.16 µM, first compound 0.000999 µM) of the same compound?
Answer: 90.8%

Question: And the viability, T/C (second compound 3.16 µM, first compound 0.00316 µM)?
Answer: 89.9%

Question: And the viability, T/C (second compound 3.16 µM, first compound 0.00999 µM)?
Answer: 80.8%

Question: What about the viability, T/C [25] of the same compound?
Answer: 62.8%

Question: And the viability, T/C (second compound 3.16 µM, first compound 0.0999 µM)?
Answer: 82%

Question: What about the viability, T/C [27] of the same compound?
Answer: 64.6%

Question: And the viability, T/C (second compound 10 µM, first compound 0.000999 µM)?
Answer: 76.1%

Question: What about the viability, T/C (second compound 10 µM, first compound 0.00316 µM) of the same compound?
Answer: 74.6%

Question: What about the viability, T/C (second compound 10 µM, first compound 0.00999 µM) of the same compound?
Answer: 72.5%

Question: And the viability, T/C [31]?
Answer: 63.8%

Question: And the viability, T/C (second compound 10 µM, first compound 0.0999 µM)?
Answer: 57.8%

Question: What about the viability, T/C [33] of the same compound?
Answer: 58.9%
